From patent publication US9567319B2, “Compound having higher inhibitory activity on protein kinase G and preparation method thereof” (Jenkem Technology Co., Ltd., (Tianjin), priority 2014, dated 2017)
Values after ≈ are worked out from the molar mass of the structure shown. Values joined by “and” are separate entries in the source; they are usually repeats but may differ in a detail not shown here. Equal values may be shown once.

How the values were obtained:
[1] = system: hyperalgesia induced by Freund's complete adjuvant (CFA) in rats; experiment: Weight bearing test, CFA induced hyperalgesia in rats; assay type: in vivo, SD rats; details: for Weight Bearing Test Values (Mean ± SD), Baseline: pretreatment, n=8; for Weight Bearing Test Values (Mean ± SD), 15 min: 15 min post treatment; for Weight Bearing Test Values (Mean ± SD), 2 h: 2 h post treatment
Experimental: Compounds 46 and JK-02A were prepared according to the disclosure of US patent application No. US2008/0176920, and compound JK-02H was prepared according to Example 1. A repeat efficacy study was carried out on the same batch of animals with a single-dose treatment followed by a washing-out period. The 14 days in life studies included two stages: a single low dose treatment assessment on the 7th day and then a single high dose treatment test on the 14th day after CFA injection. On the 7th day after CFA injection, the rats were randomly assigned to respective groups using a computer generated randomization procedure based on the body weight and the baseline values of Von Frey and weight bearing test. Animals received corresponding single dose treatments (vehicle and 3 test articles) on the 7th and 14th days after CFA injection, respectively, and the effect of the test compounds were evaluated. Hyperalgesia of all the study animals was assessed following a single low dose treatment with the test articles on day 7, while a single high dose effect of the test article was evaluated on day 14. The mechanical hyperalgesia and weight bearing were measured on day 7 and day 14 after CFA injection, followed by administration of control or test articles. Von Frey filaments and weight bearing were measured on all the study animals at three time points on day 7, and four time points on day 14. An extra time point assessment was conducted on day 14, considering the strong analgesic effect of the test articles at a higher dose noticed during the test at the 3th time point. Rats distributed body weight unequally on the CFA-injected and contra lateral paws, which was measured by a weight balance changing instrument (Bio-medical, USA). The animals were tested in a box constructed to register the weight load exerted by the hind paws by means of force plates inserted in the floor. The mean weight bearing (unit in “g”) between the CFA-injected paw and the contra-lateral paw was determined in 10 seconds. The weight bearing test of all study animals was conducted at the same time intervals as the mechanical hyperalgesia test. All the results were expressed as mean±SD. One-way analysis of variance (ANOVA) followed by a multiple comparison test were applied among the groups, p<0.05 accepted as significant.

[2] = Test of water solubility of the compounds
[3] = day 7 after CFA, single low dose i.v. (46 and JK-02A 10 mg/kg, JK-02H 5 mg/kg)
[4] = day 14 after CFA, single high dose i.v. (46 and JK-02A 40 mg/kg, JK-02H 20 mg/kg)
[5] = individual animal, high dose i.v. (46 and JK-02A 40 mg/kg, JK-02H 20 mg/kg)
[6] = individual animal, low dose i.v. (46 and JK-02A 10 mg/kg, JK-02H 5 mg/kg)

## CCCOc1ccc(F)c(F)c1C(=O)c1ccc(C(=O)N[C@@H]2CNC[C@H]2NC(=O)c2ccc3cn[nH]c3c2)cc1 [JK-02A]
[1]; day 7 after CFA, low dose groups (46 and JK-02A 10 mg/kg, JK-02H 5 mg/kg)
  Weight Bearing Test Values (Mean ± SD), Baseline: 48.18 ± 5.05 g
[1]; [3]
  Weight Bearing Test Values (Mean ± SD), 15 min: 38.11 ± 11.23 g
  Weight Bearing Test Values (Mean ± SD), 2 h: 36.24 ± 9.72 g
[1]; day 14 after CFA, high dose groups (46 and JK-02A 40 mg/kg, JK-02H 20 mg/kg)
  Weight Bearing Test Values (Mean ± SD), Baseline: 49.54 ± 7.39 g
[1]; [4]
  Weight Bearing Test Values (Mean ± SD), 15 min: 28.43 ± 8.83 g
  Weight Bearing Test Values (Mean ± SD), 2 h: 33.36 ± 8.92 g
[1]; day 14 after CFA, single high dose i.v. (46 and JK-02A 40 mg/kg, JK-02H 20 mg/kg), 5 h post treatment
  Weight Bearing Test Values (Mean ± SD), 5 h: 42.69 ± 7.52 g
[1]; [5]
  Weight Bearing Values of Individual Animal, Day 14, 15 min, Left: 58.9 g and 57.8 g and 49.6 g and 53.7 g and 52.7 g and 50.9 g and 67.1 g and 72.2 g
  Weight Bearing Values of Individual Animal, Day 14, 15 min, Right: 77.1 g and 95.3 g and 77.6 g and 90.1 g and 80.4 g and 80.1 g and 104.0 g and 85.7 g
  Weight Bearing Values of Individual Animal, Day 14, 15 min, Δ: 18.2 g and 37.5 g and 28.0 g and 36.4 g and 27.7 g and 29.2 g and 36.9 g and 13.5 g
  Weight Bearing Values of Individual Animal, Day 14, 2 h, Left: 66.8 g and 71.9 g and 48.9 g and 60.7 g and 50.1 g and 54.6 g and 44.8 g and 72.2 g
  Weight Bearing Values of Individual Animal, Day 14, 2 h, Right: 97.0 g and 106.5 g and 97.2 g and 81.1 g and 79.8 g and 91.1 g and 86.5 g and 97.7 g
  Weight Bearing Values of Individual Animal, Day 14, 2 h, Δ: 30.2 g and 34.6 g and 48.3 g and 20.4 g and 29.7 g and 36.5 g and 41.7 g and 25.5 g
  Weight Bearing Values of Individual Animal, Day 14, 5 h, Left: 38.0 g and 62.9 g and 55.0 g and 45.7 g and 52.7 g and 39.7 g and 54.9 g and 68.2 g
  Weight Bearing Values of Individual Animal, Day 14, 5 h, Right: 77.2 g and 99.3 g and 93.8 g and 90.7 g and 92.0 g and 99.9 g and 95.3 g and 110.4 g
  Weight Bearing Values of Individual Animal, Day 14, 5 h, Δ: 39.2 g and 36.4 g and 38.8 g and 45.0 g and 39.3 g and 60.2 g and 40.4 g and 42.2 g
[1]; [6]
  Weight Bearing Values of Individual Animal, Day 7, 15 min, Left: 36.6 g and 56.4 g and 47.8 g and 37.9 g and 36.9 g and 50.5 g and 25.4 g and 65.6 g
  Weight Bearing Values of Individual Animal, Day 7, 15 min, Right: 83.8 g and 79.1 g and 74.1 g and 89.5 g and 62.9 g and 93.7 g and 69.1 g and 109.8 g
  Weight Bearing Values of Individual Animal, Day 7, 15 min, Δ: 47.2 g and 22.7 g and 26.3 g and 51.6 g and 26.0 g and 43.2 g and 43.7 g and 44.2 g
  Weight Bearing Values of Individual Animal, Day 7, 2 h, Left: 68.5 g and 68.0 g and 31.5 g and 39.9 g and 43.9 g and 37.3 g and 52.3 g and 62.2 g
  Weight Bearing Values of Individual Animal, Day 7, 2 h, Right: 99.4 g and 85.5 g and 80.7 g and 75.7 g and 77.3 g and 73.4 g and 95.8 g and 105.7 g
  Weight Bearing Values of Individual Animal, Day 7, 2 h, Δ: 30.9 g and 17.5 g and 49.2 g and 35.8 g and 33.4 g and 36.1 g and 43.5 g (2×)
[1]; individual animal, pretreatment day 7, left (CFA-injected) hind paw
  First Baseline, Balance Left, individual animal: 54.2 g and 57.2 g and 45.5 g and 64.4 g and 45.6 g and 12.0 g and 58.0 g and 64.0 g
[1]; individual animal, pretreatment day 7, right hind paw
  First Baseline, Balance Right, individual animal: 103.7 g and 98.1 g and 93.0 g and 117.4 g and 90.5 g and 66.3 g and 100.6 g and 116.7 g
[1]; individual animal, pretreatment day 7, right minus left
  First Baseline, Balance Δ, individual animal: 49.5 g and 40.9 g and 47.5 g and 53.0 g and 44.9 g and 54.3 g and 42.6 g and 52.7 g
[1]; individual animal, pretreatment day 14, left (CFA-injected) hind paw
  Second Baseline, Balance Left, individual animal: 32.1 g and 47.3 g and 30.4 g and 45.9 g and 50.1 g and 39.6 g and 33.5 g and 57.1 g
[1]; individual animal, pretreatment day 14, right hind paw
  Second Baseline, Balance Right, individual animal: 89.3 g and 90.0 g and 81.0 g and 87.2 g and 92.4 g and 90.4 g and 94.1 g and 97.9 g
[1]; individual animal, pretreatment day 14, right minus left
  Second Baseline, Balance Δ, individual animal: 57.2 g and 42.7 g and 50.6 g and 41.3 g and 52.3 g and 50.8 g and 60.6 g and 40.8 g
[2]; about 0.1 g sample, room temperature, water added until dissolved
  Volume of added water: 71.5 mL
[2]; water, thermodynamic from solid
  solubility: 1400 µg/mL (≈ 2560 µM)
